Test results as given in patent US4374841A, “Pyridoxine derivatives, and use in therapeutics” (S. A. Labaz N.V., priority 1980, dated 1983).
Like-named read-outs stand apart in the source and are kept apart here.

Columns and labels:
[1] = system: anaesthetized dog; assay: Reserpine-like properties (cardiac frequency and contractility of the myocardium); type: in vivo; details: for change in vivo at 1 mg/kg: Canis lupus familiaris, intravenous, anaesthetized dog
Source text: C. Reserpine-like properties
the increase in cardiac frequency
the increase of (dP/dt) at its maximum, i.e. the increase of the maximum of the derivative of the left ventricular pressure in relation to time.
This derivative thus represented an index of contractility.

[2] = system: β-receptors; assay: Antiadrenergic properties: anti-β effect (reduction of epinephrine-accelerated heart-rate); type: in vivo; details: 10 mg/kg, intravenous, anaesthetized atropinized dog
Procedure: (§1) The purpose of this test was to determine the capacity of the compounds under study to reduce epinephrine-increased blood-pressure (anti-α effect) and epinephrine-accelerated heart-rate (anti-β effect) in the dog previously anaesthetized with pentobarbital (30 mg/kg) and atropinized (1 mg/kg).
The percentage of reduction of the epinephrine-induced acceleration of heart-rate obtained by means of the compounds under study in comparison with the tachycardia previously measured (about 70 beats) was then registered.
(§2) In both cases, the results were expressed as follows: […]
(§3) + for a <50%-reduction of the increase in pressure or cardiac frequency
(§4) ++ for a ≥50-reduction of the increase in pressure or cardiac frequency
(§5) +++ for the almost complete supression of the increase in pressure or cardiac frequency.

[3] = system: α-receptors; assay: Antiadrenergic properties: anti-α effect (reduction of epinephrine-increased blood-pressure); type: in vivo, dog; details: intravenous
Procedure: as §1
After that, the dose of epinephrine so determined was administered followed by a dose, by intravenous route, of the compound to be studied. The percentage of reduction of hypertension produced by the compound under study in comparison with the hypertension previously obtained (about 100 mm.Hg) was then registered.
as §2, §3, §4, §5

[4] = system: Okamoto rat; assay: Hypotension in the Okamoto rat; type: in vivo
Procedure: (b) Hypotension in the Okamoto rat
In this trial, the rats used belonged to a race specifically bred to produce animals having high blood-pressure. The arterial pressure of these rats was determined (about 180 mm.Hg) at the beginning of the test and a dose of the compound to be studied was then administered.
The decrease in arterial pressure was registered every hour for 6 hours after the administration of the compound in question.

[5] = system: anaesthetized dog; assay: Hypotension in the anaesthetized dog; type: in vivo; details: 2 mg/kg, intravenous
Procedure: (a) Hypotension in the anaesthetized dog
The hypotensive effect was determined for at least one hour after the intravenous injection of a dose of the compound under study in the dog previously anaesthetized with pentobarbital (30 mg/kg) and atropinized (1 mg/kg).
Arterial pression was registered on a femoral artery.
The results were expressed as follows: […]
++ for a lasting reduction of about 30% in arterial pressure
+ for a short-lived reduction of about 20% in arterial pressure.

[6] = system: mice; assay: Central depressant properties (passage of mice through a light ray); type: in vivo; details: Mus musculus, po, 0.5 h, intragastric, 30 minutes after administration, recorded over 15 minutes, dose with depressant action in 50% of the animals, read-out: AD50 (the source's name)
Procedure: D. Central depressant properties
Thirty minutes after the intragastric administration of a dose of the compound to be studied, batches of mice were placed in a container through which a ray of light was projected. By means of a photoelectric cell, a record was made of the number of animals passing through the light ray over a period of 15 minutes. The same test was performed with control animals.
The AD50 was then calculated i.e. the dose of the compound under study which provoked a depressant action in 50% of the animals.

[7] = Acute toxicity in rats; type: in vivo; details: rat, in vivo
Source text: (§6) Acute toxicity tests were also undertaken in rats and mice with compounds of the invention.

[8] = system: rats; assay: Acute toxicity in rats; type: in vivo; details: intragastric route, fumarate form
Source text: as §6

[9] = Acute toxicity in mice; details: mouse, in vivo
Source text: as §6

[10] = ip, intraperitoneal route, sesquioxalate form
[11] = po, intragastric route, sesquioxalate form

Cc1ccccc1OCCNCC(O)COc1c(C)ncc(CO)c1CO (stereo not shown) [Compound A, 4,5-dihydroxymethyl-3-[2-hydroxy-3-(2-methyl-phenoxyethylamino)-propoxy]-2-methyl-pyridine]
change in vivo at 1 mg/kg ([1]; (dP/dt) maximum, read-out: increase in the contractility of the myocardium): 10 to 30%
change in vivo at 1 mg/kg ([1]; read-out: increase in cardiac frequency): 10 to 30%
effects on cardiac frequency and contractility after reserpine ([1]; dog having previously received reserpine): suppressed
Anti-β effect [2]: + (for a <50%-reduction of the increase in pressure or cardiac frequency)
Anti-α effect ([3]; 10 mg/kg, anaesthetized atropinized dog, epinephrine): +++
α-antiadrenergic properties at a dose as low as ([3]; lowest active dose, dog, sesquioxalate): 2 mg/kg
maximum decrease (arterial pressure) ([4]; 25 mg/kg, oral route, acute treatment, initial about 180 mm.Hg): 21 mm.Hg
minimal effective dose ([4]; chronic treatment, involving one single administration, read-out: found to be active at a dose as low as): 50 mg/kg
activity in acute treatment (ranking) ([4]; oral route, acute treatment): the most active in acute treatment
minimal effective dose ([4]; oral route, acute treatment, read-out: provoked hypotension at a dose as low as): 25 mg/kg
Decrease in arterial pressure [5]: ++ (for a lasting reduction of about 30% in arterial pressure)
ED50 [6]: 50 mg/kg

Cc1ccccc1OCCNCC(O)COc1c(C)ncc(CO)c1CO (stereo not shown) [drawing 41, 4,5-Dihydroxymethyl-3-[2-hydroxy-3-(2-methyl-phenoxyethylamino)-propoxy]-2-methyl-pyridine]
LD50 [7, 10]: 320 mg/kg
LD50 ([7]; iv, fumarate form): 200 mg/kg
LD50 ([7]; iv, sesquioxalate form): 170 mg/kg
LD50 [7, 11]: 2200 mg/kg
LD0 [8]: > 2500 mg/kg
LD50 ([9]; intravenous route, sesquioxalate form): 118 mg/kg
LD50 [9, 10]: 290 mg/kg
LD50 [9, 11]: 700 mg/kg

COc1ccccc1OCCNCC(O)COc1c(C)ncc(CO)c1CO (stereo not shown) [drawing 42]
LD50 ([7]; iv, intravenous route (salt form not stated)): 245 mg/kg
LD50 ([9]; po, intragastric route (salt form not stated)): > 5000 mg/kg
